These results are taken from patent publication US8410177B2, “Curcumin derivatives” (Indian Institute of Technology Bombay, priority 2009, dated 2013).

As a reminder, the melting point is the temperature, or range, at which the solid turns liquid.

With `COc1ccc(/C=C/C(=O)C2C(=O)CC(c3ccc(OC)cc3)[C@H]([N+](=O)[O-])C2c2ccc(OC)cc2)cc1` (some centres unmarked) [IX-1, 3,5-Bis(4-Methoxyphenyl)-2-((E)-3-(4-Methoxyphenyl)acryloyl)-4-Nitrocyclohexanone], the melting point is 200 to 202 °C.

`COc1ccc(/C=C/C(=O)C2C(=O)C[C@H](c3ccc(OC)cc3)[C@H]([N+](=O)[O-])[C@H]2c2ccc(OC)c(OC)c2)cc1` (some centres unmarked) [IX-2, 3-(3,4-Dimethoxyphenyl)-5-(4-Methoxyphenyl)-2-((E)-3-(4-Methoxyphenyl)acryloyl)-4-Nitrocyclohexanone] came in with a melting point of 126 to 128 °C.

For the compound `COc1ccc(/C=C/C(=O)C2C(=O)C[C@H](c3ccc(OC)cc3)[C@H]([N+](=O)[O-])[C@H]2c2ccccc2)cc1` (some centres unmarked) [IX-3, 5-(4-Methoxyphenyl)-2-((E)-3-(4-Methoxyphenyl)acryloyl)-4-Nitro-3-Phenylcyclohexanone], the melting point was 164 to 165 °C.

Compound `COc1ccc(/C=C/C(=O)C2C(=O)C[C@H](c3ccc(OC)cc3)[C@H]([N+](=O)[O-])C2c2ccc(Cl)cc2)cc1` (some centres unmarked) [IX-4, 3-(4-Chlorophenyl)-5-(4-Methoxyphenyl)-2-((E)-3-(4-Methoxyphenyl)acryloyl)-4-Nitrocyclohexanone] returned a melting point of 156 to 158 °C.

Regarding `COc1ccc(/C=C/C(=O)C2C(=O)C[C@H](c3ccc(OC)cc3)[C@H]([N+](=O)[O-])[C@H]2c2cccs2)cc1` (some centres unmarked) [IX-5, 5-(4-Methoxyphenyl)-2-((E)-3-(4-Methoxyphenyl)acryloyl)-4-Nitro-3-(Thiophen-2-yl)cyclohexanone], the melting point was 160 to 162 °C.

In turn, `COc1ccc(/C=C/C(=O)C2C(=O)C[C@H](c3ccc(OC)cc3)[C@H]([N+](=O)[O-])[C@H]2c2ccc3c(c2)OCO3)cc1` (some centres unmarked) [IX-6, 3-(Benzo[a][1,3]dioxol-5-yl)-5-(4-Methoxyphenyl)-2-((E)-3-(4-Methoxyphenyl)acryloyl)-4-Nitrocyclohexanone] returned a melting point of 154 to 156 °C.

In turn, `COc1ccc(/C=C/C(=O)C2C(=O)C[C@H](c3ccc(OC)cc3)[C@H]([N+](=O)[O-])[C@H]2c2ccco2)cc1` (some centres unmarked) [IX-7, 3-(Furan-2-yl)-5-(4-Methoxyphenyl)-2-((E)-3-(4-Methoxyphenyl)acryloyl)-4-Nitrocyclohexanone] gave a melting point of 192 °C.

In the case of `COc1ccc(/C=C/C(=O)C2C(=O)C[C@H](c3ccc(OC)cc3)[C@H]([N+](=O)[O-])[C@H]2/C=C/c2ccccc2)cc1` (some centres unmarked) [IX-9, 5-(4-Methoxyphenyl)-2-((E)-3-(4-Methoxyphenyl)acryloyl)-4-nitro-3-styrylcyclohexanone], the melting point fell in the range of 88 to 90 °C.

`COc1ccc(C2C(C(=O)/C=C/c3ccc(OC)c(OC)c3)C(=O)C[C@H](c3ccc(OC)c(OC)c3)[C@@H]2[N+](=O)[O-])cc1` (some centres unmarked) [IX-10, 5-(3,4-dimethoxyphenyl)-3-(4-methoxyphenyl)-2-((E)-3-(3,4-dimethoxyphenyl)acryloyl)-4-Nitrocyclohexanone] returned a melting point of 158 to 160 °C.

As to `COc1ccc([C@H]2C(C(=O)/C=C/c3ccc(O)c(OC)c3)C(=O)C[C@H](c3ccc(O)c(OC)c3)[C@@H]2[N+](=O)[O-])cc1` (some centres unmarked) [IX-11, 5-(4-hydroxy-3-methoxyphenyl)-2-((E)-3-(4-hydroxy-3-methoxyphenyl)acryloyl)-3-(4-methoxyphenyl)-4-nitrocyclohexanone], the melting point is 83 to 85 °C.

The compound `COc1ccc([C@H]2C(C(=O)/C=C/c3ccccc3)C(=O)C[C@H](c3ccccc3)[C@@H]2[N+](=O)[O-])cc1` (some centres unmarked) [IX-12, 3-(4-methoxyphenyl)-4-nitro-5-phenyl-2-((E)-3-phenylacryloyl)cyclohexanone] displayed a melting point of 108 to 110 °C.

Take `COc1ccc(/C=C/C(=O)C2C(=O)C[C@H](c3ccc(OC)cc3)[C@H]([N+](=O)[O-])[C@H]2C2CCCCC2)cc1` (some centres unmarked) [IX-14, 3-cyclohexyl-5-(4-methoxyphenyl)-2-((E)-3-(4-methoxyphenyl)acryloyl)-4-nitrocyclohexanone]: the melting point fell in the range of 203 to 205 °C.

Compound `CCCC[C@H]1C(C(=O)/C=C/c2ccc(OC)cc2)C(=O)C[C@H](c2ccc(OC)cc2)[C@@H]1[N+](=O)[O-]` (some centres unmarked) [IX-15, 3-butyl-5-(4-methoxyphenyl)-2-((E)-3-(4-methoxyphenyl)acryloyl)-4-nitrocyclohexanone] showed a melting point of 127 to 129 °C.

On to `COc1ccc([C@H]2C(C(=O)/C=C/c3ccc(OCc4ccccc4)c(OC)c3)C(=O)C[C@H](c3ccc(OCc4ccccc4)cc3)[C@@H]2[N+](=O)[O-])cc1` (some centres unmarked) [IX-16, 2-((E)-3-(4-(benzyloxy)-3-methoxyphenyl)acryloyl)-5-(4-(benzyloxy)phenyl)-3-(4-methoxyphenyl)-4-nitrocyclohexanone], for which the melting point was in the range of 76 to 78 °C.
